According to article PMC3726336, “Product inhibition of cellulases studied with ^14C-labeled cellulose substrates” (Biotechnology for Biofuels, 2013):

Key:
AtCel7A = AtCel7A (Acremonium thermophilum, UniProt A7WNT9); assay: Cellobiose inhibition of MUL hydrolysis by AtCel7A; assay type: biochemical; conditions: MUL substrate (5 μM)
From the text: (§1) The cellobiose inhibition of GH7 CBHs is most often studied on low-Mw model substrates. However, it has been shown that the inhibition of CBHs acting on low-Mw substrates appears to be much stronger than that on cellulose substrates. The Ki values for cellobiose inhibition of GH7 CBHs measured on low-Mw substrates are in the micromolar range [44, 51, 52], whereas those measured on cellulose are in the low- to high-millimolar range [28, 31, 32]. […] Unfortunately, the inhibition of this enzyme on cellulose has not been studied. We also studied the cellobiose inhibition of GH7 CBHs acting on MUL. The initial rates of MUL hydrolysis measured in the presence and absence of added cellobiose were first analyzed according to Equation 1, and the IC50 values were found using Equation 2. […] The inhibition of MUL hydrolysis is attributable to the binding of cellobiose to the product sites (+1/+2) of TrCel7A [52]. […]
(§2) For the inhibition of enzyme acting on the low-Mw substrate, the initial rates of the hydrolysis of MUL in the presence and absence of added cellobiose were followed. […] Reactions were stopped by the addition of NH3 (final concentration 0.1 M), and the released 4-methylumbelliferone was quantified by fluorescence using excitation and emission wavelengths of 360 nm and 450 nm, respectively.

TrCel7A = molecular target: T1, TrCel7A (Trichoderma reesei, UniProt P62694); assay: Cellobiose inhibition of MUL hydrolysis by TrCel7A; assay type: biochemical; conditions: Ki for cellobiose, MUL substrate (5 μM)
T1 construct: TrCel7A was purified from the culture filtrate of Tr QM 9414 as described previously; made in house; host or cells: Trichoderma reesei QM 9414 culture filtrate (native producer)
T1 sequence (P62694 18-513): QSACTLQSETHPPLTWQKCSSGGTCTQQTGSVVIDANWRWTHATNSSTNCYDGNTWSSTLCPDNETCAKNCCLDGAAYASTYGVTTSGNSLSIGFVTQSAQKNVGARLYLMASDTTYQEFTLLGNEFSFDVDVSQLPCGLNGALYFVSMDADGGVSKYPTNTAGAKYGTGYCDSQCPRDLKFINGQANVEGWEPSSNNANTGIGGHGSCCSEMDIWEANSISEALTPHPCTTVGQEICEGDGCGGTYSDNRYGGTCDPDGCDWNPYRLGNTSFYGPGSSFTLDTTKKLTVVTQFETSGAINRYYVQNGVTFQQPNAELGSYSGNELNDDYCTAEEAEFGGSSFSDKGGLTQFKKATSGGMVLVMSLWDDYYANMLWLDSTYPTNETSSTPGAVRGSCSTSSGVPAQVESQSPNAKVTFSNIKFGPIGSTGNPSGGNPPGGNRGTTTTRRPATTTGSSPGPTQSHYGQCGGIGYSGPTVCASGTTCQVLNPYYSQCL
From the text: as §1, §2

Chain of AtCel7A (A7WNT9 entry or part of it): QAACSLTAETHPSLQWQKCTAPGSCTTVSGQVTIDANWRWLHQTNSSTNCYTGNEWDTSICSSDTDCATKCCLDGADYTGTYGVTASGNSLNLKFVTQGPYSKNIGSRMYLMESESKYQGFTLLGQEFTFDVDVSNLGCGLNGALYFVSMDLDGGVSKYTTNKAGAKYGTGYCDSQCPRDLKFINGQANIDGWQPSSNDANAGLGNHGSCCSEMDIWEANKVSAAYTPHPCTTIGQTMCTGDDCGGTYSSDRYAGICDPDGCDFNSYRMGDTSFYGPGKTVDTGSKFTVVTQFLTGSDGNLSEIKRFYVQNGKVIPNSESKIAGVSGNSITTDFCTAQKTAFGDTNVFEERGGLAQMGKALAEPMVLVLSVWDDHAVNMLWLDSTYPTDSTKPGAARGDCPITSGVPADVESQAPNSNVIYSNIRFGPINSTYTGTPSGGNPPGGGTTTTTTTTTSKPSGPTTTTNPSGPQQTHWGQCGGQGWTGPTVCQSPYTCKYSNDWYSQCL

## O=C[C@H](O)[C@@H](O)[C@H](O[C@@H]1O[C@H](CO)[C@@H](O)[C@H](O)[C@H]1O)[C@H](O)CO [cellobiose, Cellobiose]
AtCel7A; 35°C
  Ki: 95 µM
AtCel7A; 50°C
  Ki: 233 µM
TrCel7A; 35°C
  Ki: 40 µM
TrCel7A; 50°C
  Ki: 124 µM
